In patent US20050176775A1, “Substituted pyridinones” (priority 2003, published 2005) one finds melting point and IC50 data, which are given here for 10 molecules.

The structures appear in SMILES notation.

One may read the melting point as the temperature of the solid-liquid transition. Broadly, the IC50 is the concentration that gives 50% inhibition.

T1 sequence (Q16539 whole entry): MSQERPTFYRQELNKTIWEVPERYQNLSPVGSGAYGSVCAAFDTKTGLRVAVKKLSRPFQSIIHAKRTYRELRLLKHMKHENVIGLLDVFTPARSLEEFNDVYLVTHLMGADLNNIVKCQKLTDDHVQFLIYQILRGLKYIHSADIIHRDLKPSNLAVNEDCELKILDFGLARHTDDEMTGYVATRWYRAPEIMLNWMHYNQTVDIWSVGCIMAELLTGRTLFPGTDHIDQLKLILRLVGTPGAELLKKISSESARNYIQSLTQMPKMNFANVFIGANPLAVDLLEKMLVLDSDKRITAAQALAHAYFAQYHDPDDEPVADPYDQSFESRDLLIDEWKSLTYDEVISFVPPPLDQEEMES

Tested on in the first data set: not given
Assay: not given
Conditions: not given
For the molecule `O=c1c(Br)c(OCc2ccccc2)ccn1CCc1ccsc1` [Example 29, 4-(benzyloxy)-3-bromo-1-(2-thien-3-ylethyl)pyridin-2(1H)-one], the melting point lay within 134 to 134.3 °C.
`NC(=O)c1cccc(Cn2ccc(OCc3ccc(F)cc3F)c(Cl)c2=O)c1F` [Example 106, 3-[3-chloro-4-(2,4-difluorobenzyloxy)-2-oxo-2H-pyridin-1-ylmethyl]-2-fluoro-benzamide] yielded a melting point of 252 to 254 °C.
With `NC(=O)c1ccc(Cn2ccc(OCc3ccc(F)cc3F)c(Cl)c2=O)cc1` [Example 83, 4-[3-chloro-4-(2,4-difluorobenzyloxy)-2-oxo-2H-pyridin-1-ylmethyl]benzamide], the melting point is 235 to 238 °C.
Molecule `O=c1c(Br)c(OCc2ccc(F)c(F)c2F)ccn1Cc1cccc(F)c1` [Example 108, 3-bromo-1-(3-fluorobenzyl)-4-(2,3,4-trifluorobenzyloxy)-1H-pyridin-2-one] yielded a melting point of 176 to 178 °C.
Still for that read-out and setting: for `NC(=O)c1ccc(Cn2ccc(OCc3ccc(F)cc3F)c(Br)c2=O)cc1` [Example 103, 4-[3-bromo-4-(2,4-difluorobenzyloxy)-2-oxo-2H-pyridin-1-ylmethyl]benzamide] the value was 235 to 238 °C.
The same measure, in the same setting: next, `Cl.O=c1c(Br)c(OCc2ccccc2)ccn1CC1CCNCC1` [Example 25, 4-(benzyloxy)-3-bromo-1-(piperidin-4-ylmethyl)pyridin-2(1H)-one Hydrochloride]: 207.9 °C; `NCc1cccc(Cn2ccc(OCc3ccc(F)cc3F)c(Br)c2=O)c1.O=C(O)C(F)(F)F`: 80 to 84 °C; `O=c1c(Cl)c(OCc2ccc(F)cc2F)ccn1Cc1ccc2[nH]ccc2c1` [Example 86, 3-chloro-4-(2,4-difluorobenzyloxy)-1-(1H-indol-5-ylmethyl)-1H-pyridin-2-one]: 152 to 153 °C.

A further data set has as its target T1, human p38 kinase alpha (Homo sapiens, UniProt Q16539).
T1 construct: made in house; host or cells: E. coli DH10B
The data set can be described thus: p38 alpha kinase assay (PHAS-I / 32P-ATP format or EGFRP / 33P-ATP format). The class given is biochemical. To be noted: inhibition of activated human p38 kinase alpha; the text does not say which of the two in vitro formats was used. On the procedure: The ability of compounds to inhibit human p38 kinase alpha was evaluated using two in vitro assay methods. In the first method, activated human p38 kinase alpha phosphorylates a biotinylated substrate, PHAS-I (phosphorylated heat and acid stable protein-insulin inducible), in the presence of gamma ^32P-ATP (^32P-ATP). PHAS-I was biotinylated prior to the assay and provides a means of capturing the substrate, which is phosphorylated during the assay. p38 Kinase was activated by MKK6. Compounds were tested in 10 fold serial dilutions over the range of 100 μM to 0.001 μM using 1% DMSO. Each concentration of inhibitor was tested in triplicate.
All reactions were carried out in 96 well polypropylene plates. Each reaction well contained 25 mM HEPES pH 7.5, 10 mM magnesium acetate and 50 μM unlabeled ATP. […] Activated human p38 kinase alpha was used at 1 μg per 50 μl reaction volume representing a final concentration of 0.3 μM. […]
Following incubation, 20 μl of reaction mixture was transferred to a high capacity streptavidin coated filter plate (SAM-streptavidin-matrix, Promega) prewetted with phosphate buffered saline. […] The plates were sealed and counted.
Compounds were tested in 10 fold serial dilutions over the range of 100 μM to 0.001 μM in 1% DMSO. […] 150 μl of Microscint 40 was then added to each well of the Microlite plate, and the plate was sealed, mixed, and counted.
For the molecule `Cc1ccc(C(N)=O)cc1-n1c(C)cc(OCc2ccc(F)cc2F)c(Br)c1=O` (single isomer, unassigned) [Example 736, (+)-3-[3-bromo-4-[(2,4-difluorobenzyl)oxy]-6-methyl-2-oxopyridin-1(2H)-yl]-4-methylbenzamide], the IC50 was under 1 µM.
For `Cc1c(/C=N/O)c(OCc2ccc(F)cc2F)c(Br)c(=O)n1-c1c(F)cccc1F` [Example 565, 5-bromo-4-[(2,4-difluorobenzyl)oxy]-1-(2,6-difluorophenyl)-2-methyl-6-oxo-1,6-dihydropyridine-3-carbaldehyde Oxime], the IC50 is 25 to 100 µM.
